According to US11685716B2, “Plant growth inhibiting agent, and plant growth inhibiting method using same” (NATIONAL UNIVERSITY CORPORATION KUMAMOTO UNIVERSITY, priority 2017, dated 2023):

Columns and labels:
thale cress [1] = test: Activities on plants: growth of thale cress on agar medium (Evaluation 1, 6); type: in vivo, thale cress (Col-0, wild-type strain); conditions: thale cress Col-0, agar medium, 7 days
Protocol: The test compound (compound (6a)) and DMSO for a control experiment, were added at this stage and blended. Fifty ml each of the medium was dispensed in sterile No. 2 square petri dishes (Eiken Chemical Co., Ltd.) to prepare agar medium. As a plant material, Col-0, which is a wild-type strain of […] used. Seeds, after their surfaces were sterilized, were planted on the agar medium, and vernalized at 4° C. for 16 hours. Growth of the plant was carried out in a growth chamber (SANYO MLR-351) under the conditions of an illuminance of 3 at 23° C. with constant light. The agar medium was allowed to stand upright in the chamber to grow the plant for 7 days. Lids of the petri dishes used for the test were opened, the test results were recorded with a scanner, and with the scanned images, […]

thale cress [2] = test: Plant growth inhibition index, thale cress on agar medium in test tube (Evaluation 8, 9); type: in vivo, thale cress (Col-0, wild-type strain); design: key: 0: No effect; 1: Growth of the root part was inhibited 50% or less compared with non-treated area.; 2: Growth of the root part was inhibited 50% or more compared with non-treated area.; 3: Growth of the root part was substantially inhibited.; 4: Germination was inhibited; conditions: Concentration 200 μM, 8 days (Evaluation 9, Table 2)
Protocol: 0.44% (w/v) Mixed salts for Murashige and Skoog medium (SIGMA), 1% (w/v) sucrose, and 0.05% (w/v) MES were mixed, and pH of the solution was adjusted to pH 5.7 with potassium hydroxide. 1.5% (w/v) Agar was added to the mixture, which was sterilized at 120° C. in an autoclave for 20 minutes. The test compound and dimethylformamide containing 1.5% of polyoxyethylenesorbitan monolaurate for a control experiment, were added at this stage and blended. In addition, the compound was used by adjusting an addition concentration to 200 μM. Four ml each of the medium was dispensed in sterile glass test tube ([…] RIKA GLASS CO., LTD.) to prepare agar medium.
As a plant material, Col-0, which is a wild-type strain of thale cress, was used.
Seeds, after their surfaces were sterilized, were planted on the agar medium, and the growth of the plant was carried out in a plant incubator (CFH-405) under the conditions of an illuminance of 3 at 23° C. with constant light. The plants on the agar medium were grown for 8 days in the chamber.
The plant growth inhibition effect of the compounds was evaluated by conversion to indexes according to the following investigation criteria.

Japanese bristlegrass = test: Spray treatment to stems and leaves, killing weed index (Evaluation 10); type: in vivo; conditions: 2000 g active ingredient per hectare, two weeks later
Protocol: (§1) POA allyl phenyl ether (4.1 parts by weight), POE-POP glycol (1 part by weight), POE sorbitan laurate (0.8 parts by weight), glycerin (2.6 parts by weight), dimethylformamide (65.9 parts by weight), N-methylpyrrolidone (5.1 parts by weight), cyclohexanone (15.4 parts by weight), and aromatic hydrocarbon (5.1 parts by weight) were mixed and dissolved to prepare an emulsion. The compounds of the present invention (4 mg) were dissolved in this emulsion (100 μL) to prepare a test emulsion. In addition, POA means “polyoxyalkylene”, POE means “polyoxyethylene”, and POP means “polyoxypropylene.”
(§2) Four hundred μL of the above test emulsion was diluted with 7600 μL of water to use as a test spray liquid.
(§3) Further, 400 μL of the above test emulsion was diluted with 1600 μL of a 1% Tween20 aqueous solution to use as a spray liquid for a small amount spray test.
(§4) For a comparative spray liquid, 53 μL of a 30% pendimethalin emulsion (Gogosan emulsion: manufactured by BASF Japan) as a control pesticides was diluted with 7947 μL of water. Further, for a comparative spray liquid for a small amount spray test, 53 μL of the 30% pendimethalin emulsion was diluted with 1947 μL of water.
(§5) A 150 cm^2 pot was filled with a soil, seeds of each purple amaranth, Japanese bristlegrass, southern crabgrass, and velvet leaf were sown on the surface layer, lightly covered with a soil and grown in a greenhouse. When each plant grew to a plant height of 2 to 9 cm, the test spray liquid was sprayed to the stem and leaf parts with a small spraying machine such that an active ingredient amount was 2000 g per hectare and a sprayed liquid amount was 1000 L per hectare.
(§6) Similarly, the test spray liquid for a small amount spray test was sprayed to the stem and leaf parts with a small spraying machine such that an active ingredient amount was 2000 g per hectare and a sprayed liquid amount was 250 L per hectare.
(§7) Two weeks later, the above-ground grass weight in non-treated areas and the above-ground grass weight in treated areas, by the weed, were measured to calculate a killing weed rate by the following calculating formula.
(§8) (a) Calculating Formula of Weeding Rate Killing weed rate (%)=(above-ground grass weight in non-treated area−above-ground grass weight in treated area)/(above-ground grass weight in non-treated area)×100 (b) Killing Weed Indexes
(§9) The obtained killing weed rates were evaluated, such that a killing weed index was “10” when a killing weed rate is 100%, as “9” when a killing weed rate is 99% to 90%, “8” when a killing weed rate is 89% to 80%, “7” when a killing weed rate is 79% to 70%, “6” when a killing weed rate is 69% to 60%, “5” when a killing weed rate is 59% to 50%, “4” when a killing weed rate is 49% to 40%, “3” when a killing weed rate is 39% to 30%, “2” when a killing weed rate is 29% to 20%, “1” when a killing weed rate is 19% to 10%, and “0” when a killing weed rate is 9% to 0%.

purple amaranth = test: as above; type: in vivo; conditions: 2000 g active ingredient per hectare, two weeks later
Protocol: as §1, §2, §3, §4, §5, §6, §7, §8, §9

southern crabgrass = test: as above; type: in vivo; conditions: 2000 g active ingredient per hectare, two weeks later
Protocol: as §1, §2, §3, §4, §5, §6, §7, §8, §9

velvet leaf [3] = test: as above; type: in vivo; conditions: 2000 g active ingredient per hectare, two weeks later
Protocol: as §1, §2, §3, §4, §5, §6, §7, §8, §9

Japanese millet = test: Seed treatment, plant growth inhibition index (Evaluation 11); type: in vivo; design: key: 0: No effect; 1: Growth of the root part was inhibited 50% or less compared with non-treated area.; 2: Growth of the root part was inhibited 50% or more compared with non-treated area.; 3: Growth of the root part was substantially inhibited.; 4: Germination was inhibited; conditions: 200 μM, 6 days (9a, 9b: 7 days)
Protocol: (§10) The compound of the present invention (2 mg) was dissolved in a 1.5% Tween dimethylformamide solution (100 μL) to use as a test chemical solution.
(§11) Eight mL of sterilized water was poured to a cherry cup (100Φ×45 mm) lined with a filter paper, subsequently 81.1 μL of the sterilized water was removed, and 81.1 μL of the test chemical solution was added such that a final concentration of the compound was 800 μM.
(§12) Further, cherry cups were similarly prepared such that a final concentration of the compound was 200 μM.
(§13) Seeds (Japanese millet: 3 grains, velvet leaf: 6 grains, Ragweed: 8 grains, morning glory: 2 grains) were planted on the filter paper in the cherry cups, followed by growing the plants in a thermostatic chamber at 25° C. under a light-dark cycle in which a light period is 12 hours and a dark period is 12 hours for 6 days.
(§14) In addition, with regards to the compound (9a) and the compound (9b), the plants were tested for 7 days.
(§15) Plant growth inhibition effects of the compounds were evaluated by conversion to indexes according to the following investigation criteria.

Ragweed = test: as above; type: in vivo; design: key: 0: No effect; 1: Growth of the root part was inhibited 50% or less compared with non-treated area.; 2: Growth of the root part was inhibited 50% or more compared with non-treated area.; 3: Growth of the root part was substantially inhibited.; 4: Germination was inhibited; conditions: 200 μM, 6 days (9a, 9b: 7 days)
Protocol: as §10, §11, §12, §13, §14, §15

morning glory = test: as above; type: in vivo; design: key: 0: No effect; 1: Growth of the root part was inhibited 50% or less compared with non-treated area.; 2: Growth of the root part was inhibited 50% or more compared with non-treated area.; 3: Growth of the root part was substantially inhibited.; 4: Germination was inhibited; conditions: 200 μM, 6 days (9a, 9b: 7 days)
Protocol: as §10, §11, §12, §13, §14, §15

velvet leaf [4] = test: as above; type: in vivo; design: key: 0: No effect; 1: Growth of the root part was inhibited 50% or less compared with non-treated area.; 2: Growth of the root part was inhibited 50% or more compared with non-treated area.; 3: Growth of the root part was substantially inhibited.; 4: Germination was inhibited; conditions: 200 μM, 6 days (9a, 9b: 7 days)
Protocol: as §10, §11, §12, §13, §14, §15

[5] = sprayed liquid amount 1000 L/ha

SMILES | twisting of root epidermal cells / abnormality in direction of root growth (thale cress [1]; scanned images) | plant growth inhibition effect (activity on plant growth) (thale cress [1]) | Index (thale cress [2]) | killing weed index, Japanese bristlegrass (Japanese bristlegrass; sprayed liquid amount 250 L/ha) | killing weed index, Purple amaranth (purple amaranth; sprayed liquid amount 250 L/ha) | killing weed index, Southern crabgrass (southern crabgrass; sprayed liquid amount 250 L/ha) | killing weed index, Velvet leaf (velvet leaf [3]; sprayed liquid amount 250 L/ha) | plant growth inhibition index, Japanese millet (Japanese millet) | plant growth inhibition index, Ragweed (Ragweed) | plant growth inhibition index, Morning glory (morning glory) | plant growth inhibition index, Velvet leaf (velvet leaf [4]) | killing weed index, Japanese bristlegrass (Japanese bristlegrass; [5]) | killing weed index, Purple amaranth (purple amaranth; [5]) | killing weed index, Southern crabgrass (southern crabgrass; [5]) | killing weed index, Velvet leaf (velvet leaf [3]; [5])
CCOn1cccc1C(=O)O [Compound 6b, 1-Ethoxy-1H-pyrrole-2-carboxylic acid] | epidermal cells of the roots were twisted leftward and abnormality in a direction of the root growth was observed | – | – | – | – | – | – | – | – | – | – | – | – | – | –
O=C(O)c1cccn1O [Compound 6c, 1-Hydroxy-1H-pyrrole-2-carboxylic acid] | – | no activity was observed | – | – | – | – | – | – | – | – | – | – | – | – | –
CCCCCCCCCOn1cc(Cl)cc1C(=O)O [Compound 9b] | – | – | 3 | 3 (“3” when a killing weed rate is 39% to 30%) | 10 (“10” when a killing weed rate is 100%) | 2 (“2” when a killing weed rate is 29% to 20%) | 2 (“2” when a killing weed rate is 29% to 20%) | 0 | 0 | 3 (Growth of the stem and leave parts was inhibited 30% or more compared with non-treated area, or growth of the only root part was inhibited 60% or more compared with non-treated area.) | 0 | – | – | – | –
CCCCCCCCCOn1cccc1C(=O)NC [Compound 9d] | – | – | 3 | 2 (“2” when a killing weed rate is 29% to 20%) | 0 (“0” when a killing weed rate is 9% to 0%) | 3 (“3” when a killing weed rate is 39% to 30%) | 3 (“3” when a killing weed rate is 39% to 30%) | 3 (Growth of the stem and leave parts was inhibited 30% or more compared with non-treated area, or growth of the only root part was inhibited 60% or more compared with non-treated area.) | 3 (Growth of the stem and leave parts was inhibited 30% or more compared with non-treated area, or growth of the only root part was inhibited 60% or more compared with non-treated area.) | 0 | 0 | 1 (“1” when a killing weed rate is 19% to 10%) | 0 (“0” when a killing weed rate is 9% to 0%) | 2 (“2” when a killing weed rate is 29% to 20%) | 0 (“0” when a killing weed rate is 9% to 0%)
CCCCCCCCCOn1cccc1C(=O)NCc1ccccc1 [Compound 9e] | – | – | 2 (Growth of the root part was inhibited 50% or more compared with non-treated area.) | 2 (“2” when a killing weed rate is 29% to 20%) | 0 (“0” when a killing weed rate is 9% to 0%) | 2 (“2” when a killing weed rate is 29% to 20%) | 2 (“2” when a killing weed rate is 29% to 20%) | 3 (Growth of the stem and leave parts was inhibited 30% or more compared with non-treated area, or growth of the only root part was inhibited 60% or more compared with non-treated area.) | 0 | 0 | 0 | 2 (“2” when a killing weed rate is 29% to 20%) | 0 (“0” when a killing weed rate is 9% to 0%) | 2 (“2” when a killing weed rate is 29% to 20%) | 0 (“0” when a killing weed rate is 9% to 0%)
CCCCCCCCCOn1cccc1C(=O)NCC(F)(F)F [Compound 9f] | – | – | 2 (Growth of the root part was inhibited 50% or more compared with non-treated area.) | 2 (“2” when a killing weed rate is 29% to 20%) | 0 (“0” when a killing weed rate is 9% to 0%) | 2 (“2” when a killing weed rate is 29% to 20%) | 0 (“0” when a killing weed rate is 9% to 0%) | 3 (Growth of the stem and leave parts was inhibited 30% or more compared with non-treated area, or growth of the only root part was inhibited 60% or more compared with non-treated area.) | 5 (Growth of the stem and leave parts was inhibited 50% or more compared with non-treated area, or growth of the only root part was inhibited 100% or more compared with non-treated area.) | 3 (Growth of the stem and leave parts was inhibited 30% or more compared with non-treated area, or growth of the only root part was inhibited 60% or more compared with non-treated area.) | 0 | 1 (“1” when a killing weed rate is 19% to 10%) | 0 (“0” when a killing weed rate is 9% to 0%) | 3 (“3” when a killing weed rate is 39% to 30%) | 0 (“0” when a killing weed rate is 9% to 0%)
